Assay results reported in PMC5218480 (PLoS ONE, 2017).

Tested on: MV-4-11 cells
Test: Gene expression microarray analysis (Affymetrix PrimeView) and GSEA
Format: cell-based, human
Parameters: RFU PODN (11730768_x_at) / Fold change /veh PODN (11730768_x_at) / RFU LINC00158 (11744669_a_at) / Fold change /veh LINC00158 (11744669_a_at) / RFU DUSP10 (11751237_a_at) / Fold change /veh DUSP10 (11751237_a_at) / RFU ID3 (11757404_x_at) / Fold change /veh ID3 (11757404_x_at) / RFU PLEKHG5 (11737974_s_at) / Fold change /veh PLEKHG5 (11737974_s_at) / RFU LRRC4B (11730491_at) / Fold change /veh LRRC4B (11730491_at) / RFU GIMAP4 (11747438_a_at) / Fold change /veh GIMAP4 (11747438_a_at) / RFU KRT8 (11758183_x_at) / Fold change /veh KRT8 (11758183_x_at) / RFU CNN1 (11734310_a_at) / Fold change /veh CNN1 (11734310_a_at) / RFU VPS37D (11726825_at) / Fold change /veh VPS37D (11726825_at) / RFU C10orf10 (11716522_x_at) / Fold change /veh C10orf10 (11716522_x_at) / RFU KIR2DL2 /// KIR2DL4 /// KIR2DL5A /// KIR2DL5B /// KIR2DS1 /// KIR2DS2 /// KIR2DS3 /// KIR2DS4 /// KIR3DL3 /// KIR3DL3 /// KIR3DS1 (11738374_at) / Fold change /veh KIR2DL2 /// KIR2DL4 /// KIR2DL5A /// KIR2DL5B /// KIR2DS1 /// KIR2DS2 /// KIR2DS3 /// KIR2DS4 /// KIR3DL3 /// KIR3DL3 /// KIR3DS1 (11738374_at) / RFU C1QL1 (11718748_at) / Fold change /veh C1QL1 (11718748_at) / RFU TMPRSS4 (11747572_a_at) / Fold change /veh TMPRSS4 (11747572_a_at) / RFU HAMP (11756126_x_at) / Fold change /veh HAMP (11756126_x_at) / RFU RNFT2 (11725882_a_at) / Fold change /veh RNFT2 (11725882_a_at) / RFU NR4A2 (11747474_a_at) / Fold change /veh NR4A2 (11747474_a_at) / RFU ABCC12 (11746883_a_at) / Fold change /veh ABCC12 (11746883_a_at) / RFU TMEM136 (11760407_x_at) / Fold change /veh TMEM136 (11760407_x_at) / RFU CLDN22 /// WWC2 (11732394_at) / Fold change /veh CLDN22 /// WWC2 (11732394_at) / RFU HLA-DPB1 (11760878_x_at) / Fold change /veh HLA-DPB1 (11760878_x_at) / RFU SPINT1 (11716480_a_at) / Fold change /veh SPINT1 (11716480_a_at) / RFU GAP43 (11754022_s_at) / Fold change /veh GAP43 (11754022_s_at) / RFU A4GNT (11735810_at) / Fold change /veh A4GNT (11735810_at) / RFU PRB3 (11715151_x_at) / Fold change /veh PRB3 (11715151_x_at) / RFU TUBB4B (11761932_at) / Fold change /veh TUBB4B (11761932_at) / RFU CAPN14 (11732068_a_at) / Fold change /veh CAPN14 (11732068_a_at) / RFU TMCC2 (11721928_a_at) / Fold change /veh TMCC2 (11721928_a_at) / RFU IRGQ (11745062_a_at) / Fold change /veh IRGQ (11745062_a_at) / RFU FAM174B (11720279_a_at) / Fold change /veh FAM174B (11720279_a_at) / RFU TMPRSS4 (11748680_a_at) / Fold change /veh TMPRSS4 (11748680_a_at) / RFU FAM212B (11763350_a_at) / Fold change /veh FAM212B (11763350_a_at) / RFU PLEKHG5 (11743358_a_at) / Fold change /veh PLEKHG5 (11743358_a_at) / RFU ZSCAN30 (11745921_a_at) / Fold change /veh ZSCAN30 (11745921_a_at) / RFU CMKLR1 (11741424_a_at) / Fold change /veh CMKLR1 (11741424_a_at) / RFU LOC101060620 /// MAPK8IP1 (11723275_at) / Fold change /veh LOC101060620 /// MAPK8IP1 (11723275_at) / RFU SPTSSB (11747773_x_at) / Fold change /veh SPTSSB (11747773_x_at) / RFU PRSS12 (11739890_at) / Fold change /veh PRSS12 (11739890_at) / RFU BIN1 (11741810_x_at) / Fold change /veh BIN1 (11741810_x_at) / RFU WNT11 (11732464_a_at) / Fold change /veh WNT11 (11732464_a_at) / RFU C10orf10 (11716521_a_at) / Fold change /veh C10orf10 (11716521_a_at) / RFU C5orf56 (11738089_at) / Fold change /veh C5orf56 (11738089_at) / RFU CYB561 (11721691_x_at) / Fold change /veh CYB561 (11721691_x_at) / RFU ANKRD19P (11752326_a_at) / Fold change /veh ANKRD19P (11752326_a_at) / RFU OR2T12 /// OR2T33 /// OR2T8 (11738714_s_at) / Fold change /veh OR2T12 /// OR2T33 /// OR2T8 (11738714_s_at) / RFU VCAN (11748164_a_at) / Fold change /veh VCAN (11748164_a_at) / RFU JSRP1 (11732532_at) / Fold change /veh JSRP1 (11732532_at) / RFU KRTAP10-11 (11738290_x_at) / Fold change /veh KRTAP10-11 (11738290_x_at) / RFU MYO3A (11730013_a_at) / Fold change /veh MYO3A (11730013_a_at) / RFU EBF3 (11725865_a_at) / Fold change /veh EBF3 (11725865_a_at) / RFU CAMK2N1 (11719241_x_at) / Fold change /veh CAMK2N1 (11719241_x_at) / RFU C5orf56 (11738088_a_at) / Fold change /veh C5orf56 (11738088_a_at) / RFU OLFML3 (11715873_a_at) / Fold change /veh OLFML3 (11715873_a_at) / RFU LOC100653217 /// NTM (11731650_a_at) / Fold change /veh LOC100653217 /// NTM (11731650_a_at) / RFU MAPK11 (11762145_a_at) / Fold change /veh MAPK11 (11762145_a_at) / RFU FIZ1 (11724087_x_at) / Fold change /veh FIZ1 (11724087_x_at) / RFU OASL (11726364_x_at) / Fold change /veh OASL (11726364_x_at) / RFU SOX15 (11748057_x_at) / Fold change /veh SOX15 (11748057_x_at) / RFU CD79A (11719716_a_at) / Fold change /veh CD79A (11719716_a_at) / RFU HIST1H1D (11736915_at) / Fold change /veh HIST1H1D (11736915_at) / RFU CASKIN2 (11723855_a_at) / Fold change /veh CASKIN2 (11723855_a_at) / RFU LOC730098 (11760151_x_at) / Fold change /veh LOC730098 (11760151_x_at) / RFU OR4N2 (11742367_at) / Fold change /veh OR4N2 (11742367_at) / RFU PRRT2 (11749266_a_at) / Fold change /veh PRRT2 (11749266_a_at) / RFU SNX32 (11753110_a_at) / Fold change /veh SNX32 (11753110_a_at) / RFU CDHR5 (11726645_a_at) / Fold change /veh CDHR5 (11726645_a_at) / RFU RCAN1 (11760418_a_at) / Fold change /veh RCAN1 (11760418_a_at) / RFU FAM167A (11723789_a_at) / Fold change /veh FAM167A (11723789_a_at) / RFU FAM26E (11764081_at) / Fold change /veh FAM26E (11764081_at) / RFU ISYNA1 (11749810_s_at) / Fold change /veh ISYNA1 (11749810_s_at) / RFU ACY1 (11761880_at) / Fold change /veh ACY1 (11761880_at) / RFU 11764098_at / Fold change /veh 11764098_at / RFU SAMD14 (11745864_x_at) / Fold change /veh SAMD14 (11745864_x_at) / RFU NPB (11741838_a_at) / Fold change /veh NPB (11741838_a_at) / RFU TMPRSS6 (11731388_a_at) / Fold change /veh TMPRSS6 (11731388_a_at) / RFU KRTAP10-2 (11738614_at) / Fold change /veh KRTAP10-2 (11738614_at) / RFU ARHGAP8 /// PRR5-ARHGAP8 (11727945_x_at) / Fold change /veh ARHGAP8 /// PRR5-ARHGAP8 (11727945_x_at) / RFU KRTAP5-7 /// NADSYN1 (11734609_at) / Fold change /veh KRTAP5-7 /// NADSYN1 (11734609_at) / RFU RASL12 (11751679_a_at) / Fold change /veh RASL12 (11751679_a_at) / RFU CDKN2B (11736163_a_at) / Fold change /veh CDKN2B (11736163_a_at) / RFU PRF1 (11729649_at) / Fold change /veh PRF1 (11729649_at) / RFU, ZNF638 /// ZNF638-IT1 / Fold change vs veh, ZNF638 /// ZNF638-IT1 / RFU, PANK3 / Fold change vs veh, PANK3 / RFU, SH3YL1 / Fold change vs veh, SH3YL1 / RFU, ZEB2 / Fold change vs veh, ZEB2 / RFU, NRIP1 / Fold change vs veh, NRIP1 / RFU, PTTG1IP / Fold change vs veh, PTTG1IP / RFU, CAPN2 / Fold change vs veh, CAPN2 / RFU, MED14 / Fold change vs veh, MED14 / RFU, SNORA58 / Fold change vs veh, SNORA58 / RFU, C1orf63 / Fold change vs veh, C1orf63 / RFU, LRRFIP1 / Fold change vs veh, LRRFIP1 / RFU, NDUFAF7 / Fold change vs veh, NDUFAF7 / RFU, SLC12A2 / Fold change vs veh, SLC12A2 / RFU, IBTK / Fold change vs veh, IBTK / RFU, ESF1 / Fold change vs veh, ESF1 / Fold change vs veh, TMEM50B / RFU, TAOK1 / Fold change vs veh, TAOK1 / RFU, ACBD3 / Fold change vs veh, ACBD3 / RFU, TMA16 / Fold change vs veh, TMA16 / RFU, RWDD3 / Fold change vs veh, RWDD3 / RFU, BCAT1 / Fold change vs veh, BCAT1 / RFU, EDEM3 / Fold change vs veh, EDEM3 / RFU, TMEM33 / Fold change vs veh, TMEM33 / RFU, WDR75 / Fold change vs veh, WDR75 / RFU, AHCTF1 / Fold change vs veh, AHCTF1 / RFU, TFRC / Fold change vs veh, TFRC / RFU, ZDHHC17 / Fold change vs veh, ZDHHC17 / RFU, NOM1 / Fold change vs veh, NOM1 / RFU, ARL8B / Fold change vs veh, ARL8B / RFU, ZBTB11 / Fold change vs veh, ZBTB11 / RFU, TAMM41 / Fold change vs veh, TAMM41 / RFU, KIAA1704 /// LOC100996395 / Fold change vs veh, KIAA1704 /// LOC100996395 / RFU, ING1 / Fold change vs veh, ING1 / RFU, TRMT61B / Fold change vs veh, TRMT61B / RFU, FUBP3 / Fold change vs veh, FUBP3 / RFU, TP53 / Fold change vs veh, TP53 / RFU, TNKS2 / Fold change vs veh, TNKS2 / RFU, ZFP14 / Fold change vs veh, ZFP14 / RFU, ACTR2 / Fold change vs veh, ACTR2 / RFU, PPP3R1 / Fold change vs veh, PPP3R1 / RFU, PIK3R1 / Fold change vs veh, PIK3R1 / RFU, HNRNPA1 / Fold change vs veh, HNRNPA1 / RFU, RNF170 / Fold change vs veh, RNF170 / RFU, ZNF28 / Fold change vs veh, ZNF28 / RFU, RNGTT / Fold change vs veh, RNGTT / RFU, OGT / Fold change vs veh, OGT / RFU, BRD1 / Fold change vs veh, BRD1 / RFU, MARS / Fold change vs veh, MARS / RFU, ZNF655 / Fold change vs veh, ZNF655 / RFU, FAHD1 / Fold change vs veh, FAHD1 / RFU, BDP1 / Fold change vs veh, BDP1 / RFU, LRRCC1 / Fold change vs veh, LRRCC1 / RFU, ARID1A / Fold change vs veh, ARID1A / RFU, ZNF146 / Fold change vs veh, ZNF146 / RFU, ZNF330 / Fold change vs veh, ZNF330 / RFU, GPN3 / Fold change vs veh, GPN3 / RFU, C9orf123 / Fold change vs veh, C9orf123 / RFU, N4BP2L2 / Fold change vs veh, N4BP2L2 / RFU, ARFIP1 / Fold change vs veh, ARFIP1 / RFU, FAM179B / Fold change vs veh, FAM179B / RFU, BCL10 / Fold change vs veh, BCL10 / RFU, UHRF1BP1L / Fold change vs veh, UHRF1BP1L / RFU, BET1 / Fold change vs veh, BET1 / RFU, CNOT2 / Fold change vs veh, CNOT2 / RFU, ZNF268 / Fold change vs veh, ZNF268 / Fold change vs veh, ZNF507 / RFU, DGCR2 / Fold change vs veh, DGCR2 / RFU, WDSUB1 / Fold change vs veh, WDSUB1 / Fold change vs veh, HSP90B1 /// MIR3652 / RFU, ADSS / Fold change vs veh, ADSS / RFU, GK / Fold change vs veh, GK / RFU, ZNF148 / Fold change vs veh, ZNF148 / RFU, TAF9 / Fold change vs veh, TAF9 / RFU, SLC1A5 / Fold change vs veh, SLC1A5 / RFU, SLMO2 / Fold change vs veh, SLMO2 / RFU, ABCC4 / Fold change vs veh, ABCC4 / RFU, LOC101060439 /// RAP1B / Fold change vs veh, LOC101060439 /// RAP1B / RFU, RFX7 / Fold change vs veh, RFX7 / RFU, GTPBP10 / Fold change vs veh, GTPBP10 / RFU, CNEP1R1 / Fold change vs veh, CNEP1R1 / RFU, BIVM-ERCC5 /// ERCC5 / Fold change vs veh, BIVM-ERCC5 /// ERCC5 / RFU, ILF3 / Fold change vs veh, ILF3 / RFU 11762660_at / Fold change /veh 11762660_at / RFU VCAN (11757783_s_at) / Fold change /veh VCAN (11757783_s_at) / RFU DDX43 (11728927_at) / Fold change /veh DDX43 (11728927_at) / RFU KRT8 (11758188_x_at) / Fold change /veh KRT8 (11758188_x_at) / RFU NKD1 (11759106_at) / Fold change /veh NKD1 (11759106_at) / RFU SRD5A1 (11742802_a_at) / Fold change /veh SRD5A1 (11742802_a_at) / RFU TPSAB1 /// TPSB2 (11721975_s_at) / Fold change /veh TPSAB1 /// TPSB2 (11721975_s_at) / RFU GSTM3 (11746129_a_at) / Fold change /veh GSTM3 (11746129_a_at) / RFU IL23R (11737362_x_at) / Fold change /veh IL23R (11737362_x_at) / RFU TMEM51 (11727254_a_at) / Fold change /veh TMEM51 (11727254_a_at) / RFU PIWIL2 (11732686_x_at) / Fold change /veh PIWIL2 (11732686_x_at) / RFU ORM1 (11744905_x_at) / Fold change /veh ORM1 (11744905_x_at) / RFU CCDC152 (11743942_at) / Fold change /veh CCDC152 (11743942_at) / RFU ECM1 (11717891_a_at) / Fold change /veh ECM1 (11717891_a_at) / RFU IL23R (11748794_a_at) / Fold change /veh IL23R (11748794_a_at) / RFU TNFAIP8L3 (11732012_x_at) / Fold change /veh TNFAIP8L3 (11732012_x_at) / RFU MBOAT4 (11741988_at) / Fold change /veh MBOAT4 (11741988_at) / RFU 11764193_at / Fold change /veh 11764193_at / RFU TMEM53 (11763286_at) / Fold change /veh TMEM53 (11763286_at) / RFU MAGEB2 (11727129_at) / Fold change /veh MAGEB2 (11727129_at) / RFU TMEM200A (11744735_a_at) / Fold change /veh TMEM200A (11744735_a_at) / RFU CCDC152 (11751479_a_at) / Fold change /veh CCDC152 (11751479_a_at) / RFU FAM211A (11726209_a_at) / Fold change /veh FAM211A (11726209_a_at) / RFU RGS16 (11746705_a_at) / Fold change /veh RGS16 (11746705_a_at) / RFU VCAN (11755009_s_at) / Fold change /veh VCAN (11755009_s_at) / RFU RHOB (11743442_s_at) / Fold change /veh RHOB (11743442_s_at) / RFU RGS16 (11720943_a_at) / Fold change /veh RGS16 (11720943_a_at) / RFU RGS16 (11720944_at) / Fold change /veh RGS16 (11720944_at) / RFU, VPS4B / Fold change vs veh, VPS4B / RFU, CREB1 / Fold change vs veh, CREB1 / RFU, DNAJC13 / Fold change vs veh, DNAJC13 / RFU, GNAQ / Fold change vs veh, GNAQ / RFU, CDK5R1 / Fold change vs veh, CDK5R1 / RFU, ZRANB3 / Fold change vs veh, ZRANB3 / RFU, CUL4A / Fold change vs veh, CUL4A / RFU, CCNY / Fold change vs veh, CCNY / RFU, UFL1 / Fold change vs veh, UFL1 / RFU, COG3 / Fold change vs veh, COG3 / RFU, DIAPH2 / Fold change vs veh, DIAPH2 / RFU, SKA2 / Fold change vs veh, SKA2 / RFU, AFF3 / Fold change vs veh, AFF3 / RFU, LMF1 / Fold change vs veh, LMF1 / RFU, IPO11 / Fold change vs veh, IPO11 / RFU, DFFB / Fold change vs veh, DFFB / RFU, FOXP1 / Fold change vs veh, FOXP1 / RFU, CARD8 / Fold change vs veh, CARD8 / RFU, STRN3 / Fold change vs veh, STRN3 / RFU, ADK / Fold change vs veh, ADK / RFU, RASSF2 / Fold change vs veh, RASSF2 / RFU, WIPF1 / Fold change vs veh, WIPF1 / RFU, LARP1B / Fold change vs veh, LARP1B / RFU, RASA1 / Fold change vs veh, RASA1 / RFU, RB1 / Fold change vs veh, RB1 / RFU, PPFIA1 / Fold change vs veh, PPFIA1 / RFU, MAT2A / Fold change vs veh, MAT2A / RFU, CCT5 / Fold change vs veh, CCT5 / RFU, WDR92 / Fold change vs veh, WDR92 / RFU, CUX1 / Fold change vs veh, CUX1 / RFU, TTC7A / Fold change vs veh, TTC7A / RFU, TMEM135 / Fold change vs veh, TMEM135 / RFU, DEPTOR / Fold change vs veh, DEPTOR / RFU, CPM / Fold change vs veh, CPM / RFU, DNAJB6 / Fold change vs veh, DNAJB6 / RFU, CACNA2D3 / Fold change vs veh, CACNA2D3 / RFU, DTX4 / Fold change vs veh, DTX4 / RFU, TFCP2 / Fold change vs veh, TFCP2 / RFU, GMCL1 /// GMCL1P1 / Fold change vs veh, GMCL1 /// GMCL1P1 / RFU, AEBP2 / Fold change vs veh, AEBP2 / RFU, SNHG1 /// SNORD22 /// SNORD25 /// SNORD26 /// SNORD27 /// SNORD28 /// SNORD29 /// SNORD31 / Fold change vs veh, SNHG1 /// SNORD22 /// SNORD25 /// SNORD26 /// SNORD27 /// SNORD28 /// SNORD29 /// SNORD31 / Fold change (Aza/veh), C12orf56 (ProbeSet 11735607_a_at) / Fold change (ACY-1035/veh), C12orf56 (ProbeSet 11735607_a_at) / Fold change (Aza/veh), FGFR1OP (ProbeSet 11751329_s_at) / Fold change (ACY-1035/veh), FGFR1OP (ProbeSet 11751329_s_at) / Fold change (Aza/veh), VPS36 (ProbeSet 11739960_a_at) / Fold change (ACY-1035/veh), VPS36 (ProbeSet 11739960_a_at) / RFU SYPL1 (11715823_x_at) / Fold change /veh SYPL1 (11715823_x_at) / RFU IGFBP7 (11715501_s_at) / Fold change /veh IGFBP7 (11715501_s_at) / RFU REEP3 (11722064_at) / Fold change /veh REEP3 (11722064_at) / RFU IGLL1 (11728026_x_at) / Fold change /veh IGLL1 (11728026_x_at): dose or concentration left out as unconfirmed
Settings: ProbeSet 11758440_s_at; LIST B

Nc1ncn([C@@H]2O[C@H](CO)[C@@H](O)[C@H]2O)c(=O)n1 [azacitidine]
RFU, RFX7: 45.74 RFU
